# According to patent US7157466B2, “Quinazoline ditosylate salt compounds” (SmithKline Beecham (Cork) Limited, priority 2000, dated 2007):
# Where two headings read alike, the source gives them in different places.
# Experiments:
# [1] = Slurry equilibration, relative physical stability of anhydrate and monohydrate crystal forms; conditions: 25° C.; for Equilibrium Form: 1:1 anhydrate/monohydrate slurry in MeOH/H2O
# [2] = tested on: head and neck (HN5) cell line; experiment: Methylene blue growth inhibition assay, HN5; type: cell-based; conditions: Homo sapiens, read-out: HN5 IC50 uM Cell
# Method: (§1) Human breast (BT474), head and neck (HN5) and gastric tumor (N87) cell lines and human foreskin Fibroblasts (HFF) were cultured in low glucose DMEM (Life Technologies 12320-032) containing 10% fetal bovine serum (FBS) at 37° C. in a humidified 10% CO2, 90% air incubator. The SV40 transformed human mammary epithelial cell line HB4a was transfected with either human H-ras cDNA (HB4a r4.2) or the human c-erbB2 cDNA (HB4a c5.2). The HB4a clones were cultured in RPMI containing 10% FBS, insulin (5 μg/ml), hydrocortisone (5 μg/ml), supplemented with the selection agent hygromycin B (50 μg/ml). Cells were harvested using trypsin/EDTA, counted using a haemocytometer, and plated in […] of the appropriate media, at the following densities, in a 96-well tissue culture plate (Falcon 3075): BT474 10,000 cells/well, HN5 3,000 cells/well, N87 10,000 cells/well, HB4a c5.2 3,000 cells/well, HB4a r4.2 3,000 cells/well, HFF 2500 cells/well. The next day, compounds were diluted in DMEM containing 100 mg/ml gentamicin, at twice the final required concentration, from 10 mM stock solutions in DMSO. 100 ml/well of these dilutions were added to the 100 ml of media currently on the cell plates. Medium containing 0.6% DMSO was added to control wells. Compounds diluted in DMEM were added to all cell lines, including the HB4a r4.2 and HB4a c5.2 cell lines. The final concentration of DMSO in all wells was 0.3%. Cells were incubated at 37° C., 10% CO2 for 3 days. Medium was removed by aspiration. Cell biomass was estimated by staining cells with 100 μl per well methylene blue (Sigma M9140, 0.5% in 50:50 ethanol:water), and incubation at room temperature for at least 30 minutes. Stain was removed, and the plates rinsed under a gentle stream of water, and air-dried. To release stain from the cells 100 μl of solubilization solution was added (1% N-lauroyl sarcosine, Sodium salt, Sigma L5125, in PBS), and plates were shaken gently for about 30 minutes. Optical density at 620 nm was measured on a microplate reader. Percent inhibition of cell growth was calculated relative to vehicle treated control wells. […]
# [3] = tested on: gastric tumor (N87) cell line; experiment: Methylene blue growth inhibition assay, N87; type: cell-based; conditions: Homo sapiens, 72 h, read-out: N87 IC50 uM Cell
# Method: as §1, with “The next day, compounds were diluted in DMEM containing 100 mg/ml gentamicin, at twice the final required concentration, from 10 mM stock solutions in DMSO. 100 ml/well of these dilutions were added to the 100 ml of media currently on the cell plates.” left out, “Cell biomass was estimated by staining cells with 100 μl per well methylene blue (Sigma M9140, 0.5% in 50:50 ethanol:water), and incubation at room temperature for at least 30 minutes. Stain was removed, and the plates rinsed under a gentle stream of water, and air-dried. To release stain from the cells 100 μl of solubilization solution was added (1% N-lauroyl sarcosine, Sodium salt, Sigma L5125, in PBS), and plates were shaken gently for about 30 minutes.” left out
# [4] = Moisture sorption testing; type: physicochemical; conditions: humidities e.g. 20–75% relative humidity (RH)
# Method: Approximately 12 mg of N-{3-Chloro-4-[(3-fluorobenzyl) oxy]phenyl}-6-[5-({[2-(methanesulphonyl)ethyl]amino}methyl)-2-furyl]-4-quinazolinamine ditosylate monohydrate salt prepared according to Example 10 was weighed into a sample pan of a moisture sorption apparatus (model number SGA-100, made by VTI). The sample was dried at 60° C. under a nitrogen stream until the weight loss was less than 0.015% in 5 minutes. The relative humidity (RH) was then increased (adsorption) to 5, 15, 25, 35, 45, 55, 65, 75, 85 and 95%—at each step, equilibrium was defined as a weight change of less than 0.015% in 5 minutes. The relative humidity was then decreased (desorption) to 90, 80, 70, 60, 50, 40, 30, and 20% with the same equilibrium condition. The sorption curve (y-axis: Weight—% change vs. x-axis: % RH) is depicted in FIG. 3(a).
# Approximately 15 mg of N-{3-Chloro-4-[(3-fluorobenzyl) oxy]phenyl}-6-[5-({[2-(methanesulphonyl)ethyl]amino}methyl)-2-furyl]-4-quinazolinamine di-HCl salt was weighed into a sample pan of a moisture sorption apparatus (model number SGA-100, made by VTI). The sample was dried at 60° C. under a nitrogen stream until the weight loss was less than 0.015% in 5 minutes. The relative humidity was then increased (adsorption) to 5, 15, 25, 35, 45, 55, 65, 75, 85 and 95%—at each step, equilibrium was defined as a weight change of less than 0.015% in 5 minutes. […]
# [5] = 72 h, HN5 cells, 3 days, methylene blue
structure (smiles),measurement,setting,value
"CS(=O)(=O)CCNCc1ccc(-c2ccc3ncnc(Nc4ccc(OCc5cccc(F)c5)c(Cl)c4)c3c2)o1 [Example 10, N-{3-Chloro-4-[(3-fluorobenzyl)oxy]phenyl}-6-[5-({[2-(methanesulphonyl)ethyl]amino}methyl)-2-furyl]-4-quinazolinamine ditosylate monohydrate]",RH at which the monohydrate becomes the thermodynamically stable form,"[1]; slurry equilibration, remains stable up through 100% RH",7–15 % RH
"CS(=O)(=O)CCNCc1nc(-c2ccc3ncnc(Nc4ccc(OCc5cccc(F)c5)c(Cl)c4)c3c2)cs1 [Example 13, (4-(3-Fluoro-benzyloxy)-3-chlorophenyl)-(6-(2-((2-methanesulphonyl-ethylamino)-methyl)-thiazol-4-yl)quinazolin-4-yl)-amine ditosylate]",IC50,[2]; [5],< 5 µM
CS(=O)(=O)CCNCc1ccc(-c2ccc3ncnc(Nc4ccc(OCc5cccc(F)c5)c(Cl)c4)c3c2)o1 [N-{3-Chloro-4-[(3-fluorobenzyl)oxy]phenyl}-6-[5-({[2-(methanesulphonyl)ethyl]amino}methyl)-2-furyl]-4-quinazolinamine ditosylate],Equilibrium Form,"[1]; water volume 0%, RH 0%",Anhydrate
same,Equilibrium Form,"[1]; water volume 2%, RH 7%",Anhydrate
same,Equilibrium Form,"[1]; water volume 5%, RH 15%",Monohydrate
same,Equilibrium Form,"[1]; water volume 10%, RH 26%",Monohydrate
same,Equilibrium Form,"[1]; water volume 20%, RH 43%",Monohydrate
same,Equilibrium Form,"[1]; water volume 40%, RH 66%",Monohydrate
same,Equilibrium Form,"[1]; water volume 60%, RH 80%",Monohydrate
same,Equilibrium Form,"[1]; water volume 80%, RH 91%",Monohydrate
same,Equilibrium Form,"[1]; water volume 90%, RH 95%",Monohydrate
same,Equilibrium Form,"[1]; water volume 100%, RH 100%",Monohydrate
"CS(=O)(=O)CCNCc1ccc(-c2ccc3ncnc(Nc4ccc(OCc5cccc(F)c5)c(Cl)c4)c3c2)o1 [Example 8, N-{3-Chloro-4-[(3-fluorobenzyl)oxy]phenyl}-6-[5-({[2-(methanesulphonyl)ethyl]amino}methyl)-2-furyl]-4-quinazolinamine ditosylate anhydrate]",IC50,[3],< 5 µM
same,IC50,"[2]; HN5, 72 h",< 5 µM
"CS(=O)(=O)CCNCc1ccc(-c2ccc3ncnc(Nc4ccc(OCc5cccc(F)c5)c(Br)c4)c3c2)o1 [Example 12, (4-(3-Fluoro-benzyloxy)-3-bromophenyl)-(6-(5-((2-methanesulphonyl-ethylamino)-methyl)-furan-2-yl)quinazolin-4-yl)-amine Ditosylate]",IC50,[2]; [5],< 5 µM
"CS(=O)(=O)CCNCc1ccc(-c2ccc3ncnc(Nc4ccc(OCc5cccc(F)c5)c(Cl)c4)c3c2)o1.Cl.Cl [di-HCl salt, N-{3-Chloro-4-[(3-fluorobenzyl)oxy]phenyl}-6-[5-({[2-(methanesulphonyl)ethyl]amino}methyl)-2-furyl]-4-quinazolinamine di-HCl salt]",Water sorption,[4],sorbs very large amounts of water
